Among the data in patent publication US9670514B2, “Method for producing polysaccharide” (SANYO CHEMICAL INDUSTRIES, LTD., priority 2011, dated 2017) are IC50 values, retold here.

One may read the IC50 as the point on the concentration scale where inhibition reaches its midpoint.

This test deals with T1, cellulose synthase (Novacetimonas hansenii, UniProt Q59167).
T1 construct: FLAG; made in house; host or cells: Escherichia coli SURE, as in Preparation 1
Description: Inhibitory concentration IC50 against cellulose synthase. The conditions noted are these: cellulose synthase (B-3) 1.5 U/mL. Format: biochemical, acetic acid bacteria. On the procedure:
Hyaluronan synthase aqueous solution (B-1) obtained in Preparation 1 was dissolved to a concentration of 1.5 U/mL in 940 μL of aqueous solution 1 (50 mM phosphate buffer (pH of 7.5, 25° C.) containing 5 mM magnesium chloride and 0.05 mM sodium uridine diphosphate) in a 1.5 mL-tube. The tube was allowed to stand at 40° C. for 20 minutes in a constant temperature water bath. To the tube was added 50 μL of temperature-adjusted (40° C.) substrate solution [1-1] (a solution obtained by dissolving uridine diphosphate-glucuronic acid sodium salt and uridine diphosphate-N-acetylglucosamine both to a concentration of 20 mM in buffer solution B (50 mM phosphate buffer, pH of 7.5, 25° C.)). Thereby, enzyme reaction solution (I-1) was obtained. […] The supernatant (80 μL) was analyzed by HPLC under the following conditions, and the peak areas of hyaluronan were recorded. […]
The inhibitory concentration IC50 was measured in a similar manner as in “Measurement of the inhibitory concentration IC50 against hyaluronan synthase”, except that “cellulose synthase aqueous solution (B-3) obtained in Preparation 12” was used in place of “hyaluronan synthase aqueous solution (B-1) obtained in Preparation 1”, “substrate solution [1-3] […]
The inhibitory concentration IC50 was also determined in a similar manner, except that the amount of cellulose synthase aqueous solution (B-3) was changed from 1.5 U/mL to 45 U/mL. […]

T1 sequence (Q59167 whole entry): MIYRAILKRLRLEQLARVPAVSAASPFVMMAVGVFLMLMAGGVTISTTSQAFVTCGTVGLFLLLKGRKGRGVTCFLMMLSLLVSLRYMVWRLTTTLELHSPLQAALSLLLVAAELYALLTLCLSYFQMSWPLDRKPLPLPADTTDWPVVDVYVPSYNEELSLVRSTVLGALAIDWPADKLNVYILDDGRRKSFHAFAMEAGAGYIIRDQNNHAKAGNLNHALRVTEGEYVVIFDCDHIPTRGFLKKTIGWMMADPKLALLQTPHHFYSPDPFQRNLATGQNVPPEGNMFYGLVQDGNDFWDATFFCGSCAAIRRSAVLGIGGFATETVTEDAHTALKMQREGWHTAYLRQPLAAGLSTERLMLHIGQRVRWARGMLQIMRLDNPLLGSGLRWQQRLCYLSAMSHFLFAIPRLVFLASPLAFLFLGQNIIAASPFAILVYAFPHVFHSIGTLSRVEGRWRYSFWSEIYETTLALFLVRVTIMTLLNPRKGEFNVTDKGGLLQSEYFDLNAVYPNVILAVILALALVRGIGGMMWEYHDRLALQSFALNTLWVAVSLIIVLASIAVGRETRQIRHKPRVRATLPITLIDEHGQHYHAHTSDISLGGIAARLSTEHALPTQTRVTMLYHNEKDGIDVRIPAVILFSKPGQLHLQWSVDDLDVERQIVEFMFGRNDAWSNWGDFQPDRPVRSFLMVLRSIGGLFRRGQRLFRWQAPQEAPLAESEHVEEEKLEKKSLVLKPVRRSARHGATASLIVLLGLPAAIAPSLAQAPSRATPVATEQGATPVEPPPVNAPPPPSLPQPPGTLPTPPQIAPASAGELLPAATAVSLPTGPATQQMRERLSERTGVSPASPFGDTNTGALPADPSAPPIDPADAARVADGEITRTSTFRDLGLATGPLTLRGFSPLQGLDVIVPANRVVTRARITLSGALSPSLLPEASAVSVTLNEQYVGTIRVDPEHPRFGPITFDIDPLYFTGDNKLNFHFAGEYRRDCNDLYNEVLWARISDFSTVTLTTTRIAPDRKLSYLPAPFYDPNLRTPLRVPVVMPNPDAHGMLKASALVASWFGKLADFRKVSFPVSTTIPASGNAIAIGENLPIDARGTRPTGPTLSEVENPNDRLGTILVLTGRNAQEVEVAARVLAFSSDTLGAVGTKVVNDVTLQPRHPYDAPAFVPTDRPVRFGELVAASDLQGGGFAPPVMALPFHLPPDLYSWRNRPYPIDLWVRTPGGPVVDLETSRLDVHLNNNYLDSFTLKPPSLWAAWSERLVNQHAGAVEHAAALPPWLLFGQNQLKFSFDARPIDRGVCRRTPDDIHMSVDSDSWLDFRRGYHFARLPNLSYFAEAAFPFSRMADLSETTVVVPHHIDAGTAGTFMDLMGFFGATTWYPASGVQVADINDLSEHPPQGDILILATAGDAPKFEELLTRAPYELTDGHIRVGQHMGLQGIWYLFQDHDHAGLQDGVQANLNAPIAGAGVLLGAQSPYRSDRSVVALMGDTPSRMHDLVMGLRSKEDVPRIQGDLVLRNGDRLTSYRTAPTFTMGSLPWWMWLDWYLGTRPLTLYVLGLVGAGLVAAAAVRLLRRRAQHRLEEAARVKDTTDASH

Take `O=c1ccn([C@@H]2O[C@H](COP(=O)(O)OP(=O)(O)O)[C@@H](O)[C@H]2O)c(=O)[nH]1` [uridine diphosphate]: 100 µM corresponded to half-maximal inhibition (IC50).
